Reference: patent publication US20260243686A1, “REAL TIME DETECTION AND QU[…] PLANT INNATE IMMUNITY RESPONSE USING RAMAN SPECTROSCOPY” (TEMASEK LIFE SCIENCES […], priority 2021, published 2026)
Ends that are not written are not given here.

How the values were obtained:
[1] = tested on: PTI response in Arabidopsis thaliana (Col-0) leaves; experiment: Raman spectroscopy of elicitor-infiltrated leaves, Elicitor Response Factor (ERF); type: in vivo; details: for ERF (Elicitor Response Factor) value: WT Col-0, 1 μM elicitor, proximal region, 10 hpi; for ERF value: proximal region (PR), 48 and 72 hpi
Description: Plant growth and elicitor/pathogen infiltration: Arabidopsis thaliana (Col-0) wild-type (WT) and mutants including fls2 (salk_062054), efr-2 (salk_068675), bak1 (salk_116202), bik1 (salk_005291), rbohd (salk_083046), pub12/13 (Zhou et al., 2018) and pub25/26 (Wang et al., 2018) were used. Ten-day old seedlings grown on soil were transferred to a growth room at 70% humidity and 21° C. with a 10-h-light/14-h-dark photoperiod (short-day condition). Light intensity was 100 μmol/m^2s^−1. Five to 6 week-old plants with about 17-18 leaves were used. Flg22 contains the 22-amino acid sequence […] (SEQ ID NO:1) corresponding to a conserved motif of the amino terminus of flagellin from Pseudomonas species. Elf18 contains the sequence Ac[…] (SEQ ID NO:2) corresponding to the conserved N-terminal 18-amino acid peptide of the bacterial protein elongation factor Tu (EF-Tu). These peptides (Axil Scientific Pte Ltd) were dissolved in sterile H2O to a concentration of 5 mM and aliquots of 100 μM stock solution were stored at −20° C. 3-hydroxydecanoic acid (Sigma, H3648) (Kutschera et al., 2019) was dissolved in ethanol to a concentration of 5 mM, and Chitin, GlcNacβ1-4[GlcNacβ1-4GlcNAc]5GlcNAc (ELICITYL, GLU437) was dissolved in water to a concentration of 5 mM. Aliquots of 100 μM stock solutions were stored at −20° C.
Custom-built Raman spectroscopy system and spectral data analysis: The Raman spectroscopy system with an 830 nm excitation wavelength was previously described (Huang et al., 2020). The Raman shift axis was calibrated using a polystyrene sample (Creely et al., 2005) and Raman spectra were recorded in the range of 400 cm^−1-1700 cm^−1. The 830 nm excitation wavelength has the advantage of deeper penetration depth and generating comparatively lower fluorescence background signal from the leaf tissue, resulting in spectra with a higher signal to noise ratio (SNR). The pre-processing of the Raman spectra consisted of cosmic ray removal and smoothing with the Savitzky-Golay filter function (MATLAB Inc., USA) with 5th order polynomial and frame length of 11. The Raman spectra presented here were obtained after removing any residual fluorescence background using a polynomial subtraction method with non-negative constraints (Lieber & Mahadevan-Jansen, 2003).
For Arabidopsis, two plants from each independent biological sample were investigated (Huang et al., 2020). The 7th or 8th leaf of 5-6 week-old plants were used for infiltrations (FIGS. 1A-1E) At the designated time after infiltrations, leaf discs (6 mm diameter) were excised with a puncher from regions proximal to the infiltrated sites (FIG. 2A). Two leaf discs were obtained from each elicitor-treated leaf, one from the left and the other from the right side of the central leaf vein. A total of 4 leaf discs were analyzed for each genotype per experiment. The leaf discs were placed with a drop of water between a fused silica slide of thickness 0.5 mm and a fused silica coverslip, which was 100 μm thick. Three locations were measured in each leaf disc, with 5 Raman spectra acquired per location and an exposure time of 10 s per spectrum. Thus, an average Raman spectrum of an independent biological sample was obtained from the mean of total 60 Raman spectra. The experiments were repeated with 3-4 independent biological samples.
A custom-built near infrared excitation Raman instrument (FIG. 1E) to measure Raman spectra from mock- or elicitor-infiltrated leaf samples (FIGS. 2B-2C). […]

[2] = tested on: PTI-specific marker genes in Arabidopsis leaves; experiment: Gene expression analysis of PTI marker genes by qRT-PCR; type: in vivo, Arabidopsis thaliana; details: infiltrated leaves, 1.0 μM elicitor
Description: RNA extraction and gene expression analysis by qRT-PCR: Total RNA was extracted from the entire infiltrated leaf using RNeasy plant mini kit (74104; Qiagen) with DNase I (79254; Qiagen) treatment. cDNA synthesis and RT-PCR were performed as described (Park et al., 2019). Expression of the Arabidopsis Act2 (At3g18780) was used as an internal control. Primer pairs for quantitative RT-PCR were designed using Primer-BLAST (https://www.ncbi.nlm.nih.gov/tools/primer-blast/index.cgi) or manually by eye.
flg22 and elf18 were used to induce plant innate immunity responses without related pathogenic symptoms (Bektas & Eulgem, 2015). To reduce variability between biological samples, Arabidopsis wild-type (Col-0) and mutant plants were grown under short-day conditions for about 5-6 weeks with about 17-18 leaves (Farmer et al., 2013; Kurenda et al., 2019) (FIG. 1A). The abaxial side of leaf 7th or 8th was infiltrated with a needleless syringe containing (50 μl) water, 1.0 μM flg22 or 1.0 μM elf18 (FIG. 1B). […] However, compared to mock infiltration, infiltration of either elicitor induced expression of PTI-specific marker genes of the PTI pathway but with different kinetics (FIGS. 3A-3C). […] Expression of most activated genes returned to basal levels by 24 hours (FIGS. 3A-3C) although several genes (PR1, WRYK29, and WRKY53) still maintained high expression levels at this time point.

[3] = tested on: PTI response in Arabidopsis thaliana (Col-0) leaves; experiment: Raman spectroscopy of elicitor-infiltrated leaves, Elicitor Response Factor (ERF); type: in vivo; details: WT, 1 μM elicitor, distal region (DR)
[4] = fls2 mutant, 24 hpi, 1 μM elicitor

Substance | ERF (Elicitor Response Factor) value [1] | ERF value ([1]; WT, 1 μM elicitor) | Raman peak at 1065 cm^−1 ([1]; WT, 24 hpi) | Raman/ERF response [1, 4] | innate immunity response (gene expression and callose deposition data together) [2] | ERF value [3] | increase of ERF value from 10 hpi to 24 hpi ([1]; WT, 1 μM elicitor) | Raman peak intensity at 789.7 cm^−1 ([1]; WT, 24 hpi) | Raman/ERF response ([1]; efr-2 mutant, 24 hpi, 1 μM elicitor)
AcSKEKFERTKPHVNVGTIG (SEQ ID NO:2) (Ac-SKEKFERTKPHVNVGTIG; listed as Pseudomonas sp.) [elf18, conserved N-terminal 18-amino acid peptide of the bacterial protein elongation factor Tu (EF-Tu)] | 0.63×10^4 | decreased to almost zero | specifically resulted in changes | remained responsive | induced rapid and robust innate immunity response | Lower ERF value | – | – | –
QRLSTGSRINSAKDDAAGLQIA (SEQ ID NO:1) (listed as Pseudomonas sp.) [flg22] | 1.12×10^4 | decreased to almost zero | – | refractory | induced rapid and robust innate immunity response | Low ERF values | about 8 times | statistically significant change | responded
